Measurements as given in patent US5344932A, “N-(pyrrolo(2,3-d)pyrimidin-3-ylacyl)-glutamic acid derivatives” (Trustees of Princeton University, priority 1991, dated 1994).

Legend:
[1] = system: human T-cell derived lyphoblastic leukemia cells (CCRF-CEM); experiment: Reversal of cytotoxicity by addition of hypoxanthine/purines, AICA, thymidine or leucovorin; assay type: cell-based
Description: (§1) As noted, the compounds of this invention have an effect on one or more enzymes which utilize folic acid, and in particular metabolic derivatives of folic acid, as a substrate. […] Cytotoxicity is not reversed by addition of purines such as hypoxanthine or by addition of aminoimidazolecarboxamide but is reversed by addition of thymidine, indicating specific inhibition in the tymidylate cycle and not in de novo purine synthesis. The compounds can be used, under the supervision of qualified professionals, to inhibit the growth of neoplasms including choriocarcinoma, leukemia, adenocarcinoma of the female breast, epidermid cancers of the head and neck, squamous or small-cell lung cancer, and various lymphosarcomas. The compounds can also be used to treat mycosis fungoides and psoriasis.
Cytotoxicity is also reversed by addition of leucovorin, indicating the cytotoxicity is due to antagonism of a folate-related mechanism.

[2] = system: L5178Y/TK^- tumor line; experiment: In vivo activity against L5178Y/TK^- tumor line in DBA/2 mice (female)
Method: In vivo activity can be seen from the following representative data for N-{4-[2-(4-hydroxy-6-aminopyrrolo[2,3-d]pyrimidin-3-yl)ethyl]benzoyl}-L-glutamic acid against the L5178Y/TK^- tumor line in DBA/2 mice (female), administration being ip in a total volume of 0.5 mL daily for eight days: […]

[3] = system: human T-cell derived lyphoblastic leukemia cells (CCRF-CEM); experiment: Inhibition of growth of CCRF-CEM cell cultures; assay type: cell-based
Description: as §1
Representative inhibition values against CCRF-CEM 5 cell cultures for typical compounds are as follows: […]

[4] = dose 25.00, ip daily for eight days
[5] = dose 50.00, ip daily for eight days
[6] = dose 100.00, ip daily for eight days
[7] = dose 200.00, ip daily for eight days

IC50 [3] [µg/mL]	Compound	Reversal of cytotoxicity by addition of aminoimidazolecarboxamide (AICA) ([1]; addition of aminoimidazolecarboxamide (AICA))	Reversal of cytotoxicity by addition of purines such as hypoxanthine ([1]; addition of hypoxanthine)	Reversal of cytotoxicity by addition of thymidine ([1]; addition of thymidine)	Toxicity ([2]; dose 12.50, ip daily for eight days)	% Inhibition [2, 4] [%]	Toxicity [2, 4]	Tumor Weight [2, 4]	% Inhibition [2, 5] [%]	Toxicity [2, 5]	Tumor Weight [2, 5]	% Inhibition [2, 6] [%]	Toxicity [2, 6]	Tumor Weight [2, 6]	% Inhibition [2, 7] [%]	Toxicity [2, 7]	Tumor Weight [2, 7]
–	Nc1nc2[nH]cc(CCc3ccc(C(=O)N[C@@H](CCC(=O)O)C(=O)O)cc3)c2c(=O)[nH]1	not reversed	not reversed	reversed	0/7	100	0/7	0 ± 0	100	0/6	0 ± 0	100	0/7	0 ± 0	100	0/7	0 ± 0
> 20	Nc1nc(O)c2c(CCc3ccc(C(=O)N[C@@H](CCC(=O)O)C(=O)O)o3)c[nH]c2n1 [N-{5-[2-(4-hydroxy-6-aminopyrrolo[2,3-d]pyrimidin-3-yl)ethyl]fur-2-ylcarbonyl}-L-glutamic acid]	–	–	–	–	–	–	–	–	–	–	–	–	–	–	–	–
